Experimental data: patent US7138530B2, “Thiophene amidines, compositions thereof, and methods of treating complement-mediated diseases and conditions” (3-Dimensional Pharmaceuticals, Inc., priority 2002, dated 2006)

target: T1, activated human C1s (Homo sapiens, UniProt P09871); assay: In vitro inhibition of C1s: Ki determination, C1s-catalyzed hydrolysis of Z-Gly-Arg-S-Bzl detected with DTNB; type: biochemical; settings: purified activated human C1s 2.3 nM, Z-Gly-Arg-S-Bzl 45 μM, DTNB 200 μM, pH 7.5, 37° C., absorbance at 405 nm
T1 construct: purchased Calbiochem (La Jolla, Calif.)
T1 sequence (P09871 438-688 limits assumed): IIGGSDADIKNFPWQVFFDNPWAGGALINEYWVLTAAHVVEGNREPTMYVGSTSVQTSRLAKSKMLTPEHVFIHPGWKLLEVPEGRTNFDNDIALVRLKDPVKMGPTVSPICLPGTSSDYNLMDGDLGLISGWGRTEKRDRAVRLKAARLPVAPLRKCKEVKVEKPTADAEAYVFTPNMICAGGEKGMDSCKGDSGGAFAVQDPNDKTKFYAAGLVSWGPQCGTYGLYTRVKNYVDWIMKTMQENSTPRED
T1 sequence (P09871 16-437 partner limits assumed): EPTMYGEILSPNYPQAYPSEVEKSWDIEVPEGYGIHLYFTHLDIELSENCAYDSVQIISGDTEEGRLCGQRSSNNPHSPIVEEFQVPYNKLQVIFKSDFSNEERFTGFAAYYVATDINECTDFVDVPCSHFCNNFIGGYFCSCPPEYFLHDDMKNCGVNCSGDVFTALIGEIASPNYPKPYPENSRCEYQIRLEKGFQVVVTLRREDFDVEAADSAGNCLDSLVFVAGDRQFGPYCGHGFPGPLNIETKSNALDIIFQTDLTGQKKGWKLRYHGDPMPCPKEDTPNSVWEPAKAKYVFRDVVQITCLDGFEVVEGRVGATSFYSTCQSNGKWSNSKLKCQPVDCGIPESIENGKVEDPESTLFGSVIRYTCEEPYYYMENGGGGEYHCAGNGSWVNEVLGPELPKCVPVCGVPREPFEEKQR
Description: Reagents: All buffer salts were obtained from Sigma Chemical Company (St. Louis, Mo.), and were of the highest purity available. DTNB was purchased from Pierce (Rockford, Ill.). Z-Gly-Arg-S-Bzl was purchased from Enzyme Systems Products (Livermore, Calif.). Activated human C1s was purchased from Calbiochem (La Jolla, Calif.).
Test compounds are prepared as a 10 μM solution in DMSO. Dilutions are prepared in DMSO yielding 7 final concentrations encompassing a 700-fold concentration range.
Reactions were initiated by the addition of a 10 μL aliquot of the enzyme, and the absorbance increase at 405 nm is continuously recorded for 15 minutes in a Molecular Devices plate reader. Final DMSO concentration was 4.3%. […] The ratio of the velocity (rate of change in absorbance as a function of time) for a sample containing no test compound is divided by the velocity of a sample containing test compound, and is plotted as a function of test compound concentration. The data are fit to a linear regression, and the value of the slope of the line calculated. The inverse of the slope is the experimentally determined Ki value.

| Ki | SMILES |
| --- | --- |
| 6 to 23 nM | CSc1sc(C(=N)N)cc1S(=O)(=O)c1cccc(-c2ccsc2)c1 [Example 77, 5-Methylsulfanyl-4-(3-thiophen-3-yl-benzenesulfonyl)-thiophene-2-carboxamidine] |
| 6 to 23 nM | CSc1sc(C(=N)N)cc1S(=O)(=O)c1cccc(-c2c(C)cc(NC(=N)N)cc2NC(=O)NCCCCCC(=O)O)c1 [Example 259] |
| 6 to 23 nM | CSc1sc(C(=N)NC(=O)OC(C)(C)C)cc1S(=O)(=O)c1cccc(-c2ccc(S(C)(=O)=O)cc2)c1 [Example 57, {Imino-[4-(4′-methanesulfonyl-biphenyl-3-sulfonyl)-5-methylsulfanyl-thiophen-2-yl]-methyl}-carbamic acid tert-butyl ester] |
